Experimental findings from PMC6028453, “BrlR from Pseudomonas aeruginosa is a receptor for both cyclic di-GMP and pyocyanin” (Nature Communications, 2018) are described below.

For one assay, the target named is T1, BrlR mutant Y270A (Pseudomonas aeruginosa, UniProt Q9HUT5, Y270A).
T1 construct: His6-SUMO (N, cleaved yes); made in house; host or cells: E. coli BL21 DE3
The assay is described as follows: FP binding assay, BrlR Y270A. Here is the method: (§1) F-c-di-GMP and F-c-di-AMP both contain a fluorophore at one of the 2′-ribose hydroxyls of c-di-GMP and c-di-AMP, respectively (Fig. 2f). To measure the binding of c-di-GMP and c-di-AMP to BrlR variants, 1 nM F-c-di-GMP or F-c-di-AMP was incubated with increasing amounts of indicated BrlR WT, BrlR mutation, or BrlR-C in reaction buffer (25 mM HEPES, 100 mM NaCl, pH 7.5) at 25 °C for 20 min. 1 nM fluorescein was incubated with BrlR WT in the same reaction buffer at 25 °C. FP measurements were conducted on a Synergy 4 Microplate Reader (BioTek) at 25 °C. All experiments were performed in triplicate. The curves were fitted to deduce binding affinities by GraphPad Prism 5.
(§2) BrlR–c-di-GMPs interactions in two separate c-di-GMP binding sites
(§3) In the first binding site, c-di-GMP is half accommodated by the antiparallel β-sheet and two residues (M1 and D35). In detail, the backbone amide protons of the first M1 residue form a hydrogen bond (H-bond) with the phosphate oxygen atom of c-di-GMP, and the side chain of R31 forms two H-bonds with the Gua1 base. The residue D35 also forms an H-bond with the Gua1 base. The aromatic ring of Y40 interacts with the Gua1 base through a hydrophobic π-π interaction. In addition, the hydroxyl group of the Y270 side chain from another subunit interacts with the phosphate 2 of c-di-GMP via an H-bond (Fig. 2d). […]

The target of a further assay is T2, C2E mut2 DNA binding (Pseudomonas aeruginosa, UniProt Q9HUT5, R67A/R86A).
T2 construct: His6-SUMO (N, cleaved yes); made in house; host or cells: E. coli BL21 DE3
T2 sequence (Q9HUT5 whole entry R67A/R86A): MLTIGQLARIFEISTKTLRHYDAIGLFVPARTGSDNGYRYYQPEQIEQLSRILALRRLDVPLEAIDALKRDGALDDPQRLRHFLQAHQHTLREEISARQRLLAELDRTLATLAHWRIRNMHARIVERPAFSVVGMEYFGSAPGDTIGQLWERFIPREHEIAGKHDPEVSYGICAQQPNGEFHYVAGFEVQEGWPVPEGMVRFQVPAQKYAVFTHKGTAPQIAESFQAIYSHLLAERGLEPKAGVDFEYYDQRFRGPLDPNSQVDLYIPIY
The assay is described as follows: EMSA, C2E mut2 with PbrlR DNA. Format: biochemical. As for the experimental part:
(§4) A 6-carboxy-fluorescein (FAM)-labeled 36-bp brlR promoter DNA (PbrlR) or 80-bp mexA/mexE promoter DNA (PmexA/PmexE) probes (~0.375 pmol), BrlR protein and varying amounts of inducers were incubated in binding buffer (10 mM Tris HCl [pH 7.4], 50 mM KCl, 1 mM DTT, […] and 5 ng/mL poly [dI-dC]) for 60 min at 25 °C. Finally, glycerol was added to a concentration of 6.5%. The samples were subjected to a 5% polyacrylamide gel electrophoresis and run in 0.5 × Tris-borate-EDTA buffer at 80 V for 1 h at room temperature. Imaging and data analyses were performed using a Typhoon Scanner (GE Healthcare) and Imagequant software. The probes used are listed in Supplementary Table 1.

For another assay, the target named is T3, BrlR Y270A DNA binding (Pseudomonas aeruginosa, UniProt Q9HUT5, Y270A).
T3 construct: His6-SUMO (N, cleaved yes); made in house; host or cells: E. coli BL21 DE3
T3 sequence (Q9HUT5 whole entry Y270A): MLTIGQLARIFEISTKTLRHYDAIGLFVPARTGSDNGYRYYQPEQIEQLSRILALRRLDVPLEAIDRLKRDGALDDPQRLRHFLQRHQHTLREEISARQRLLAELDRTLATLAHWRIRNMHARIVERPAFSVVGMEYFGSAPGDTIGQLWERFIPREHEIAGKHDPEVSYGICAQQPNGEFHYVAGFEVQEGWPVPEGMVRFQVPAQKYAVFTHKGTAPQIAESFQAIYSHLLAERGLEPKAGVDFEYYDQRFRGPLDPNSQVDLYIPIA
The assay is described as follows: EMSA, BrlR Y270A. The assay is classed as biochemical. As for the experimental part:
as §4
A general note: In EMSA bound probe runs differently from free probe, usually more slowly.

A further assay concerns the target T4, C2E mut1 DNA binding (Pseudomonas aeruginosa, UniProt Q9HUT5, D35A/R31A/Y270A/Y40A).
T4 construct: His6-SUMO (N, cleaved yes); made in house; host or cells: E. coli BL21 DE3
The assay is described as follows: EMSA, C2E mut1 with PbrlR DNA. The assay is classed as biochemical. As for the experimental part: as §4

The target in a further assay is T5, BrlR (Pseudomonas aeruginosa, UniProt Q9HUT5).
T5 construct: His6-SUMO (N, cleaved yes); made in house; host or cells: E. coli BL21 DE3
T5 sequence (Q9HUT5 whole entry): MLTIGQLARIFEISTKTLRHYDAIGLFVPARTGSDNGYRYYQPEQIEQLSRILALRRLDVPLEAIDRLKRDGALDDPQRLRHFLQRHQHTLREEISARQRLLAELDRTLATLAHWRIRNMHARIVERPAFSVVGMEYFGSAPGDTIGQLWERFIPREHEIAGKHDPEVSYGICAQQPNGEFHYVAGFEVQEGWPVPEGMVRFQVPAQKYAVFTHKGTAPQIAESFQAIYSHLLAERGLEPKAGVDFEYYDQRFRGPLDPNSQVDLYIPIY
Briefly: Surface plasmon resonance (SPR) analysis. The assay is classed as binding. The settings on record: SPR, first submitted version of the manuscript (quoted by reviewer); authors later call it a very weak artificial affinity. Here is the method: The binding affinity of diverse toxic compounds for BrlR were investigated by SPR using a BIAcore-T200 apparatus (GE Healthcare). The ligand, BrlR (20 μM in 10 mM sodium acetate, pH 4.5), was immobilized on an activated CM5 sensor chip by amine coupling (BIAcore) with 4400 response units (RU), and the unreacted sites were blocked with 1.0 M ethanolamine–HCl (pH 8.5). Steady-state binding analysis was performed with injections of different molecules at different concentrations over the immobilized BrlR surface at a flow rate of 20 μL min^−1 at 25 °C. Association was measured for 180 s, followed by 120 s of dissociation in running buffer (20 mM Hepes pH 7.5, 150 mM NaCl). The sensorgrams for specific interactions were obtained by subtracting the reference unimmobilized flow cell response from that of the sample. Since BrlR only has one binding site for pyocyanin or other toxic compounds (Fig. 5a–f), the kinetic analysis of the sensorgrams from analyte interaction with the immobilized BrlR was performed by fitting the binding curves to a 1:1 binding model. To determine the steady state KD values, equilibrium responses were plotted against analyte concentrations, and the resulting curves were fitted to the steady state model in the BIAevaluation software package, version 3.0 (GE Healthcare).

Another assay has as its target T6, BrlR mutant R31A (Pseudomonas aeruginosa, UniProt Q9HUT5, R31A).
T6 construct: His6-SUMO (N, cleaved yes); made in house; host or cells: E. coli BL21 DE3
The assay is described as follows: FP binding assay, BrlR R31A. As for the experimental part:
as §1, §2, §3

The target of a further assay is T7, BrlR Y40A DNA binding (Pseudomonas aeruginosa, UniProt Q9HUT5, Y40A).
T7 construct: His6-SUMO (N, cleaved yes); made in house; host or cells: E. coli BL21 DE3
T7 sequence (Q9HUT5 whole entry Y40A): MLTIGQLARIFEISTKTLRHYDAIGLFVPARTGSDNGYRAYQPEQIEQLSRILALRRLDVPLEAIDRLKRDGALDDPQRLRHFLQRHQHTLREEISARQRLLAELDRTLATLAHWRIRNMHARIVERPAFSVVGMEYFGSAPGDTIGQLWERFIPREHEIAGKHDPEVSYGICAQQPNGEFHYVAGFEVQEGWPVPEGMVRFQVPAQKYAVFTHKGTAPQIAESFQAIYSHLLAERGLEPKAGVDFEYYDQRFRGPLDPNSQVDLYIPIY
The assay is described as follows: EMSA, BrlR Y40A. Format: biochemical. As for the experimental part: as §4

Molecules are shown by their SMILES.

T6 sequence (Q9HUT5 whole entry R31A): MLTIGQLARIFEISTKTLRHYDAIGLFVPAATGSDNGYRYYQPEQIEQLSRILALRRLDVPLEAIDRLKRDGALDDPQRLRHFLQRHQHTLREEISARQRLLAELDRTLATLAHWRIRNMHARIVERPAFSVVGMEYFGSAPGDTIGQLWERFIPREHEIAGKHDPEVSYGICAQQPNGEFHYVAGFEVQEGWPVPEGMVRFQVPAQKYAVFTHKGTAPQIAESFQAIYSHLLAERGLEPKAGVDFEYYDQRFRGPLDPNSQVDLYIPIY
T1 sequence (Q9HUT5 whole entry Y270A): as the sequence (Q9HUT5 whole entry Y270A) above
T4 sequence (Q9HUT5 whole entry R31A/D35A/Y40A/Y270A): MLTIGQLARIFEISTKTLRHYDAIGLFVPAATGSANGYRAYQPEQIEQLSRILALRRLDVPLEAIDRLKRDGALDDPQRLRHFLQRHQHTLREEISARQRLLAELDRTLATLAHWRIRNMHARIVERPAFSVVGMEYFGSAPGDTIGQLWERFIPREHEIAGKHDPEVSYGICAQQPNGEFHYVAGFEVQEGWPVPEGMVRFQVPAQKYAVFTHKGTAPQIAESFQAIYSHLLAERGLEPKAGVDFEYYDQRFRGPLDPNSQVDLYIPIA

Usually Kd stands for the constant that tells how readily two partners part at equilibrium. Consider `Nc1nc2c(ncn2[C@@H]2O[C@@H]3COP(=O)(O)O[C@H]4[C@@H](O)[C@H](n5cnc6c(=O)[nH]c(N)nc65)O[C@@H]4COP(=O)(O)O[C@H]3[C@H]2O)c(=O)[nH]1` [c-di-GMP, cyclic diguanylate monophosphate], for which the values for the Kd on BrlR mutant Y270A, at BrlR and at BrlR mutant R31A were 40.8 ± 3.8 µM, 2690 µM and 42.7 ± 5.4 µM, respectively. The entries for the “BrlR-DNA complex in the presence vs absence of c-di-GMP” value on C2E mut2 DNA binding and at C2E mut1 DNA binding were 1.9 fold and 1.5 fold, respectively. In addition, the “DNA bound in the presence vs absence of c-di-GMP” value at BrlR Y270A DNA binding is recorded as ~ 3.4 fold; on BrlR Y40A DNA binding it was ~ 1.1 fold.
